How the values were obtained:
[1] = test system: myocardial ischemia-reperfusion (I/R) injury; experiment: Murine myocardial ischemia reperfusion model; type: in vivo, mice
Experimental: The ability of compound (3-1) to provide cardioprotective benefits in a myocardial ischemia-reperfusion (I/R) injury model was tested in mice. In this study, it is shown that bolus administration of compound (3-1) into the left ventricular cavity post-ischemia and five minutes prior to a 24-hour reperfusion period reduced myocardial ischemia and reduced myocardial infarct size as a percentage of risk area. The mice used in these studies were C57-BL6/J mice, 8-10 weeks, (Jackson Laboratory, Bar Harbor, Me.). Food and water were provided ad libitum. Test animals were allowed to acclimate in a temperature and humidity controlled environment prior to the commencement of experimental procedures.
Mice were anesthetized with ketamine and pentobarbital sodium and maintained with warming during surgical procedures to induce myocardial ischemia-reperfusion (I/R) injury. […]
After 24 hours of reperfusion, post-ischemia, mice were anesthetized, intubated, and connected to a rodent ventilator. […] Each of the five myocardial slices (1-mm) were weighed, areas of infarction, area at risk (AAR), and non-ischemic left ventricle were assessed with computer-assisted planimetry by an observer blinded to sample identity. […]
Data were analyzed by 2-way ANOVA with post-hoc Bonferroni analysis using StatView software version 5.0 (SAS Institute). […]

[2] = test system: hepatic ischemia-reperfusion (I/R) injury; experiment: Murine hepatic ischemia-reperfusion injury model; type: in vivo, mice; settings: for serum liver transaminase (ALT) levels: C57-BL6/J mice, after five hours reperfusion, compared to vehicle
Experimental: The ability of compound (3-1) to provide cytoprotective benefit in a model of hepatic ischemia-reperfusion (I/R) injury was tested in mice.
The mice used in these studies were C57-BL6/J mice, 8-10 weeks, (Jackson Laboratory, Bar Harbor, Me.). Food and water were provided ad libitum. Test animals were allowed to acclimate in a temperature and humidity controlled environment prior to the commencement of experimental procedures.
Mice were anesthetized with ketamine and xylazine and maintained with warming during surgical procedures to induce hepatic ischemia-reperfusion (UR) injury. Specifically, a midline incision was performed to expose the liver, and heparin was injected to prevent blood clotting. Both the hepatic artery and portal vein were clamped with microaneurysm clamps to render the left lateral and median lobes of the liver ischemic. Ischemia proceeded for 45 minutes, with the liver maintained in the peritoneal cavity in its original location and kept moist with gauze soaked with 0.9% normal saline. Control mice received sham surgeries, although hepatic blood flow was not reduced with a microaneurysm clamp. At the end of 45 minutes, microaneurysm clamps were removed. Serum liver transaminase levels (ALT) were tested after five hours of hepatic reperfusion using spectrophotometry and commercially available reagents (Sigma-Aldrich).
Murine hepatic ischemia-reperfusion injury test animals were randomized to four groups. Group 1: vehicle (EtOH/PEG300+0.1% citric acid) treated; Group 2: treatment with 7 mg/kg Compound (3-1); Group 3: treatment with 15.0 mg/kg Compound (3-1). […] ALT levels were reduced in the two treatment groups (7.0 mg/kg, and 15.0 mg/kg), compared to vehicle.

In the case of `c1ccc(CSSSSCc2ccccc2)cc1` [Compound 3-1, 1,4-dibenzyltetrasulfane], the “myocardial infarct size as a percentage of risk area” value ([1]; C57-BL6/J mice, 7 mg/kg bolus into left ventricular cavity after 30 minutes ischemia, five minutes prior to 24 hour reperfusion) was “reduced”, the myocardial ischemia ([1]; mice, bolus into left ventricular cavity post-ischemia, five minutes prior to 24-hour reperfusion) was “reduced” and the “serum liver transaminase (ALT) levels” value ([2]; 7 mg/kg intraperitoneal bolus post-ischemia (45 min)) was “statistically significant reduction”. For the same compound, the “serum liver transaminase (ALT) levels” value ([2]; 15.0 mg/kg intraperitoneal bolus post-ischemia (45 min)) was “reduced” and the “liver transaminase alanine aminotransferase (ALT) measured in serum” value ([2]; mice, intraperitoneal bolus post-hepatic ischemia, immediately prior to five hour reperfusion, dose not given) was “decreased”.

Reference: patent US8202997B2, “Compositions and methods for treating or preventing hypoxic or ischemic injury” (Ikaria, Inc., priority 2008, dated 2012)
